The record followed here is patent US20210130406A1, “PEPTIDE, COMPOSITION, AND METHOD FOR TREATING, PREVENTING, OR AMELIORATING MOOD DISORDER” (KYOTO UNIVERSITY, priority 2018, published 2021).

Assay [1] concerns ddy mouse. The assay is described as follows: Tail suspension test (motivation-improving effect), oral peptide. Format: in vivo. The settings on record: 30 minutes after administration, vs saline control. Here is the method: (§1) Each prepared peptide was administered to a mouse (ddy mouse (5-week-old male, body weight 24 g-28 g)) in each of the following tests, and then the motivation-improving effect was evaluated by a tail suspension test.
(§2) Each mouse was suspended by the tail and hung 30 cm above the floor, 30 minutes after peptide administration. Subsequently, over a period of 6 minutes from the start of the test (0 minute), the time (immobility time) during which the mouse was in an immobility state after initiating escape behavior was measured. The immobility state is known as a “despair state”, and it can be evaluated that the shorter the immobility time, the better the despair state and the greater the motivation. Therefore, substances that provide a motivation-improving effect in this test can be effective in treating, preventing, or ameliorating mood disorders.
The amino acid sequence represented by SEQ ID NO: 2 was dissolved in physiological saline and orally administered to each mouse in an amount of 0.03, 0.1, or 0.3 mg/kg per body weight (n=5 to 6). As a control, mice were prepared by orally administering physiological saline alone (n=6). Each mouse was subjected to a tail suspension test, and the motivation-improving effect resulting from the peptide of the present invention was evaluated.
Each of the amino acid sequences represented by SEQ ID NOS: 1 to 3 was dissolved in physiological saline and orally administered to mice in an amount of 0.1 mg/kg per body weight (n=5 to 6). As a control, mice were prepared by orally administering physiological saline alone to the mice (n=6). Each mouse was subjected to a tail suspension test, and the motivation-improving effect resulting from the peptide of the present invention was evaluated.

The subject of assay [2] is ddy mouse. The assay is described as follows: Tail suspension test, peptide combined with receptor antagonists. In kind it is in vivo. The settings on record: Test 3, FIG. 3. How it is done: as §1, §2
Mice were prepared by orally administering the amino acid sequence represented by SEQ ID NO: 2 in an amount of 0.3 mg/kg and various receptor antagonists in combination thereto (n=5 to 6). Each mouse was subjected to a tail suspension test, and the motivation-improving effect resulting from the peptide of the present invention was evaluated.
(1) SCH23390: dopamine D1 receptor antagonist, and the amount used: 30 μg/kg (2) WAY100135: serotonin 5-HT1A receptor antagonist, and the amount used: 10 mg/kg (3) Bicuculline: GABA-A receptor antagonist, and the amount used: 30 mg/kg

Setting [3] is: Test 2, FIG. 2, oral 0.1 mg/kg in physiological saline.

Take QQFLPEG [SEQ ID NO: 3]: in the assay with ddy mouse [1] (setting [3]), the immobility time result is reported as “not observed to have any decrease in immobility time”.
Regarding QQFLPEGQSQSQK [SEQ ID NO: 2], the immobility time result with ddy mouse [1] (Test 1, FIG. 1, oral 0.03, 0.1 or 0.3 mg/kg in physiological saline, 6 minutes test, tendency depended on concentration) was “shorter than that of the control”; with ddy mouse [1] (setting [3]) it was “shorter immobility time than the control”; in the assay with ddy mouse [2] (oral 0.3 mg/kg combined with Bicuculline (GABA-A receptor antagonist) 30 mg/kg), “relatively decreased the immobility time”; with ddy mouse [2] (oral 0.3 mg/kg combined with SCH23390 (dopamine D1 receptor antagonist) 30 μg/kg), “significantly increased immobility time”; in the assay with ddy mouse [2] (oral 0.3 mg/kg combined with WAY100135 (serotonin 5-HT1A receptor antagonist) 10 mg/kg), “relatively decreased the immobility time”.
Regarding QSQSQK [SEQ ID NO: 1], the immobility time result with ddy mouse [1] (setting [3]) is “shorter immobility time than the control”.
